Experimental findings from ChEMBL document CHEMBL5212743, “Selectivity Literature for EUbOPEN Chemogenomics Library wave 3” (2023) are described below.

In assay [1] the target is Serine/threonine-protein kinase Chk2 (Homo sapiens, UniProt O96017). Nature of the assay: Selectivity interaction (KinomeScan (DiscoverX)) EUB0000702a CHEK2. To be noted: at 1 µM.
In assay [2] the target is eIF-2-alpha kinase GCN2 (Homo sapiens) (UniProt Q9P2K8). Nature of the assay: Selectivity interaction (KinomeScan (DiscoverX)) EUB0000702a EIF2AK4. To be noted: at 1 µM.
In assay [3] the target is Serine/threonine-protein kinase TAO1 (Homo sapiens) (UniProt Q7L7X3). Nature of the assay: Selectivity interaction (KinomeScan (DiscoverX)) EUB0000702a TAOK1. As to conditions: at 1 µM.
The target of assay [4] is T1, Phosphatidylinositol 5-phosphate 4-kinase type-2 beta (Homo sapiens) (UniProt P78356).
T1 sequence (whole entry): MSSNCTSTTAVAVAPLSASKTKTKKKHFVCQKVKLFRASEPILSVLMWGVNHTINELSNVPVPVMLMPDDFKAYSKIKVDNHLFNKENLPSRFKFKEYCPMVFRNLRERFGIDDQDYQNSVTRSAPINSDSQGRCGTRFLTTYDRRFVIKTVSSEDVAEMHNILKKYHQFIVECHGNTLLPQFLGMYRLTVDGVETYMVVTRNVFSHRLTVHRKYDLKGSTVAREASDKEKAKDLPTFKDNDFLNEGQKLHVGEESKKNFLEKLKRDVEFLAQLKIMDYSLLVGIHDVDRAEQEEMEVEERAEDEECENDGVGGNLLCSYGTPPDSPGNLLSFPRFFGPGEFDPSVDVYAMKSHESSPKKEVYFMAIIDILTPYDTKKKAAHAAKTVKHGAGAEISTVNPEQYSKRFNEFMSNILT
Nature of the assay: Selectivity interaction (KinomeScan (DiscoverX)) EUB0000702a PIP4K2B. To be noted: at 1 µM.

The target of assay [5] is Bone morphogenetic protein receptor type-1B (Homo sapiens) (UniProt O00238). In words: Selectivity interaction (KinomeScan (DiscoverX)) EUB0000702a BMPR1B. As to conditions: at 1 µM.
Assay [6] concerns the target Mitogen-activated protein kinase kinase kinase 3 (Homo sapiens, UniProt Q99759). Nature of the assay: Selectivity interaction (Enzymatic assay) EUB0000178b MAP3K3.
Assay [7] deals with Mitogen-activated protein kinase kinase kinase 3 (Homo sapiens) (UniProt Q99759). Nature of the assay: Selectivity interaction (KinomeScan (DiscoverX)) EUB0000178b MAP3K3. As to conditions: at 1 µM.
The target of assay [8] is Serine/threonine-protein kinase TAO1 (Homo sapiens) (UniProt Q7L7X3). Nature of the assay: Selectivity interaction (KinomeScan (DiscoverX)) EUB0000178b TAOK1. To be noted: at 1 µM.
Assay [9] concerns the target Tyrosine-protein kinase JAK1 (Homo sapiens, UniProt P23458). Nature of the assay: Selectivity interaction (KinomeScan (DiscoverX)) EUB0000178b JAK1@kinase 2. To be noted: at 1 µM.
The target of assay [10] is T2, Receptor-interacting serine/threonine-protein kinase 4 (Homo sapiens) (UniProt P57078).
T2 sequence (whole entry): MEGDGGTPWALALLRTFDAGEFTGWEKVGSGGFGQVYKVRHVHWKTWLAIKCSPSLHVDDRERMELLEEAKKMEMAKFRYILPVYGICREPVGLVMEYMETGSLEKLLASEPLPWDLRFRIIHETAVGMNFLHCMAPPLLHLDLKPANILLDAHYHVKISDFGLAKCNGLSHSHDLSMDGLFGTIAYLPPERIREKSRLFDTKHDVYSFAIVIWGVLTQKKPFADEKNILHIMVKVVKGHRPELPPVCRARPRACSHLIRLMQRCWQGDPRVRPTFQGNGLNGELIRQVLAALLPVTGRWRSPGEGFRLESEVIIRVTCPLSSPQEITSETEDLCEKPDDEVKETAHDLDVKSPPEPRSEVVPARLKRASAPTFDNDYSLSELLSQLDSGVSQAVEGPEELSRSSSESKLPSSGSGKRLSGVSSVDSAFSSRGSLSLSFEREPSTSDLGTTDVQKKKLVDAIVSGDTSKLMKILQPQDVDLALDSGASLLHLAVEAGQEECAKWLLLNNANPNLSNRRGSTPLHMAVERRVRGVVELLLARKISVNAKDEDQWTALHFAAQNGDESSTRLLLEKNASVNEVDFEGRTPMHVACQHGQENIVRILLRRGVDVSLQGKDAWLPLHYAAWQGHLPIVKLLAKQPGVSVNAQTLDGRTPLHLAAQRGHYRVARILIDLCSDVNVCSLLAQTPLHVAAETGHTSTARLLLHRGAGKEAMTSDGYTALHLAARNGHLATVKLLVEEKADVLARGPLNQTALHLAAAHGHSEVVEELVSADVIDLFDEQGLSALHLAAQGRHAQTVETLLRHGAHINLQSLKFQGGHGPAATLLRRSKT
Nature of the assay: Selectivity interaction (KinomeScan (DiscoverX)) EUB0000178b RIPK4. As to conditions: at 1 µM.

Assay [11] concerns the target Dual specificity protein kinase CLK2 (Homo sapiens, UniProt P49760). Nature of the assay: Selectivity interaction (KinomeScan (DiscoverX)) EUB0000138c CLK2. To be noted: at 100 nM.
Assay [12] addresses Hepatocyte growth factor receptor (Homo sapiens) (UniProt P08581). As to conditions: at 1 µM.
For assay [13], the target named is Mitogen-activated protein kinase kinase kinase 19 (Homo sapiens, UniProt Q56UN5). In words: Selectivity interaction (NanoBRET assay (HEK293T cells)) EUB0000305b MAP3K19. On the technique in general: In BRET a luciferase serves as donor, and the signal depends on an acceptor being close.
Assay [14] concerns the target Death-associated protein kinase 1 (Homo sapiens) (UniProt P53355). Nature of the assay: Selectivity interaction (KinomeScan (DiscoverX)) EUB0000698a DAPK1. To be noted: at 10 µM.
The target of assay [15] is Cyclin-dependent kinase 2 (Homo sapiens, UniProt P24941). Nature of the assay: Selectivity interaction (Kinase panel (enzymatic assay)) EUB0000698a CDK2.
For assay [16], the target named is Serine/threonine-protein kinase PLK2 (Homo sapiens) (UniProt Q9NYY3). In words: Selectivity interaction (KinomeScan (DiscoverX)) EUB0000698a PLK2. To be noted: at 10 µM.
For assay [17], the target named is Dual specificity tyrosine-phosphorylation-regulated kinase 1A (Homo sapiens, UniProt Q13627). Nature of the assay: Selectivity interaction (Kinase panel (University of Dundee)) EUB0000169b DYRK1A. As to conditions: at 10 µM.
The target in assay [18] is Tyrosine-protein kinase CSK (Homo sapiens) (UniProt P41240). Nature of the assay: Selectivity interaction (Kinase panel (University of Dundee)) EUB0000169b CSK. To be noted: at 10 µM.
Assay [19] deals with T3, Phosphatidylinositol 5-phosphate 4-kinase type-2 gamma (Homo sapiens) (UniProt Q8TBX8).
T3 sequence (whole entry): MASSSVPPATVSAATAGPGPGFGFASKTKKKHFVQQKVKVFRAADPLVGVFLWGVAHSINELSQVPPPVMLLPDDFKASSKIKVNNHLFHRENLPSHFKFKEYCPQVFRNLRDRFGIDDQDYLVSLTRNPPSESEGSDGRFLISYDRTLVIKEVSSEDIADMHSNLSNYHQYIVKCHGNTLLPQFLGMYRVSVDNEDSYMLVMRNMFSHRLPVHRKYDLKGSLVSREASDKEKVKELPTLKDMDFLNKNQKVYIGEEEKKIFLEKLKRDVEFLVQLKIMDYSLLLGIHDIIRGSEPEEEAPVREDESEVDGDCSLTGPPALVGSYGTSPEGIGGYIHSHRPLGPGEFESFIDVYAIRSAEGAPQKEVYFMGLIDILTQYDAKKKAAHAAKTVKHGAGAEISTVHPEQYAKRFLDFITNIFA
In words: Selectivity interaction (KinomeScan (DiscoverX)) EUB0000169b PIP4K2C. To be noted: at 1 µM.

Serine/threonine-protein kinase TAO1 (Homo sapiens), sequence (Q7L7X3 whole entry): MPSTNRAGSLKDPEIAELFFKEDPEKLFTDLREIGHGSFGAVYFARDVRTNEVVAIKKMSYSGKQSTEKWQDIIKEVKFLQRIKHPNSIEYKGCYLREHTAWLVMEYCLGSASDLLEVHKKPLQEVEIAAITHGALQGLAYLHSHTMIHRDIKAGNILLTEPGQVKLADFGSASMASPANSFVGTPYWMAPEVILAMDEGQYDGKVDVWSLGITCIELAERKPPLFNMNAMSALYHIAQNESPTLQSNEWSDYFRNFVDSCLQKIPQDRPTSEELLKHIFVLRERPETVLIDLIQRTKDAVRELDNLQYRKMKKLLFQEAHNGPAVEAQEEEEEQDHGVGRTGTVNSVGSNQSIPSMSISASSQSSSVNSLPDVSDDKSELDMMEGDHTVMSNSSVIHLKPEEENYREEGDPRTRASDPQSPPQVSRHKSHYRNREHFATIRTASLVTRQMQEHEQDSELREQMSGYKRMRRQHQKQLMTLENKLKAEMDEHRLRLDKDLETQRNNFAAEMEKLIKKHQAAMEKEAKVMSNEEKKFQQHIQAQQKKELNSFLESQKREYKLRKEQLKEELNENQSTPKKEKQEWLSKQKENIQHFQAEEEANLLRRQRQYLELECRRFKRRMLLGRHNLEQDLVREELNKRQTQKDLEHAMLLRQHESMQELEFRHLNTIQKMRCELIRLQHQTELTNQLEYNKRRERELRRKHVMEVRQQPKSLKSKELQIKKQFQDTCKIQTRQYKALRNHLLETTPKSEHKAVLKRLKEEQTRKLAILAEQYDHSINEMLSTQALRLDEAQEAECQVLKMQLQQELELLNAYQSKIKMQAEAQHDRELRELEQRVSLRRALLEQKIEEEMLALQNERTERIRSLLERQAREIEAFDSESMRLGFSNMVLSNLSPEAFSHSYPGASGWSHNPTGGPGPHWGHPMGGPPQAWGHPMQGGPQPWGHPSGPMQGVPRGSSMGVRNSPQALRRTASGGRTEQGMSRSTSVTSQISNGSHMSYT
eIF-2-alpha kinase GCN2 (Homo sapiens), sequence (Q9P2K8 whole entry): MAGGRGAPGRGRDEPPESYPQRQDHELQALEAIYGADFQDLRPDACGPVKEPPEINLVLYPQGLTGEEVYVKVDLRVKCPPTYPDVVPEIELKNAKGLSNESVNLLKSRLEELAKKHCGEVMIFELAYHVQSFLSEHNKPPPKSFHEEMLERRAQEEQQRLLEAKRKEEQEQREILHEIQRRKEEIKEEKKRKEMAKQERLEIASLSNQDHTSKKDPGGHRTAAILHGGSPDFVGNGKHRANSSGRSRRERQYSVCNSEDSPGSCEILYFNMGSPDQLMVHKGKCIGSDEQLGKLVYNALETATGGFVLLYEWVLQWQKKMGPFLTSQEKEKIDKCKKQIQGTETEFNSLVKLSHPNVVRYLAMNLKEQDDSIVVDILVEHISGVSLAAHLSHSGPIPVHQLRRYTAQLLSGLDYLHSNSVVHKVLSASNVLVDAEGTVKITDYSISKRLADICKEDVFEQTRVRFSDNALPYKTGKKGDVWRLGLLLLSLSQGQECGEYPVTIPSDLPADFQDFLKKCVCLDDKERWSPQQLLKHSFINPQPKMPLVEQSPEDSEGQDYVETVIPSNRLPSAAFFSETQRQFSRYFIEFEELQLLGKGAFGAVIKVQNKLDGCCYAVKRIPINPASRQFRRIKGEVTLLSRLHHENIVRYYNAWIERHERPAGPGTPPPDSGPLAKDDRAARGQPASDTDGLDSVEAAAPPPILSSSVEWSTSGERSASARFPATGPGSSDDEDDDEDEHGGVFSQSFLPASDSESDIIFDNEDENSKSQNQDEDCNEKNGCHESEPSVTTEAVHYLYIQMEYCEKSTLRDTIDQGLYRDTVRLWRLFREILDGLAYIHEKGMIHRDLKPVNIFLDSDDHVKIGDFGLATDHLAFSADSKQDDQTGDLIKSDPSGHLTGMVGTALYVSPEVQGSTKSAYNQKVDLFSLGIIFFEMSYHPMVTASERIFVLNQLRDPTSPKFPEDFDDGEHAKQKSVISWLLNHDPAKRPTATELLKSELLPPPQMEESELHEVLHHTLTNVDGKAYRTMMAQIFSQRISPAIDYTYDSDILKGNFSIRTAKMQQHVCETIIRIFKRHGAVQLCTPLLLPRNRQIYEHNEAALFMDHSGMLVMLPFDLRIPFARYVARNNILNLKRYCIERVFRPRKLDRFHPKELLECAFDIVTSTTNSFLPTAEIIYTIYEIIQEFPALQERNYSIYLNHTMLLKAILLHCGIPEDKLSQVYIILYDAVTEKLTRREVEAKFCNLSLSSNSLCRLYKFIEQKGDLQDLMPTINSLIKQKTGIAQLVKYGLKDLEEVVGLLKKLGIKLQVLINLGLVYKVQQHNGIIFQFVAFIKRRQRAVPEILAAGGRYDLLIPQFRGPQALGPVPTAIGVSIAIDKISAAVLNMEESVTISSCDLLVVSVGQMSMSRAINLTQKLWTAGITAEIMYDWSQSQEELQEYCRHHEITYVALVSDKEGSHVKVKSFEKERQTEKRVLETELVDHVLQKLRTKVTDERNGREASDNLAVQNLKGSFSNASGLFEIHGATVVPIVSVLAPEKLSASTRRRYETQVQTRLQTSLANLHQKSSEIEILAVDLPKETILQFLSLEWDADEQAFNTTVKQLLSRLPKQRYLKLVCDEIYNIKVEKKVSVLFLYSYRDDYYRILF
Tyrosine-protein kinase CSK (Homo sapiens), sequence (P41240 2-450 limits assumed): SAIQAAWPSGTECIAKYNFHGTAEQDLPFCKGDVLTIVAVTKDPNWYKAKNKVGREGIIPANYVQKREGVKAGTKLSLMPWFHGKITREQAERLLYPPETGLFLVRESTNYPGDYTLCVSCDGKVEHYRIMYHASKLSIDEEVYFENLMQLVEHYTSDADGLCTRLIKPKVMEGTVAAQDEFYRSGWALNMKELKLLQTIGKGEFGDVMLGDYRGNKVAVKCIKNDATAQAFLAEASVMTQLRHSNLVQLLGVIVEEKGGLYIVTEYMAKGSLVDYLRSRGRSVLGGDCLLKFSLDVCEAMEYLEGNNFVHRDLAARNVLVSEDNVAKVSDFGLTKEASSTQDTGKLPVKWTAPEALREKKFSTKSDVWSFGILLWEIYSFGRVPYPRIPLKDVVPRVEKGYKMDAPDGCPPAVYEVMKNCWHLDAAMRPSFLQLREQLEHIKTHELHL
Tyrosine-protein kinase JAK1, sequence (P23458 whole entry): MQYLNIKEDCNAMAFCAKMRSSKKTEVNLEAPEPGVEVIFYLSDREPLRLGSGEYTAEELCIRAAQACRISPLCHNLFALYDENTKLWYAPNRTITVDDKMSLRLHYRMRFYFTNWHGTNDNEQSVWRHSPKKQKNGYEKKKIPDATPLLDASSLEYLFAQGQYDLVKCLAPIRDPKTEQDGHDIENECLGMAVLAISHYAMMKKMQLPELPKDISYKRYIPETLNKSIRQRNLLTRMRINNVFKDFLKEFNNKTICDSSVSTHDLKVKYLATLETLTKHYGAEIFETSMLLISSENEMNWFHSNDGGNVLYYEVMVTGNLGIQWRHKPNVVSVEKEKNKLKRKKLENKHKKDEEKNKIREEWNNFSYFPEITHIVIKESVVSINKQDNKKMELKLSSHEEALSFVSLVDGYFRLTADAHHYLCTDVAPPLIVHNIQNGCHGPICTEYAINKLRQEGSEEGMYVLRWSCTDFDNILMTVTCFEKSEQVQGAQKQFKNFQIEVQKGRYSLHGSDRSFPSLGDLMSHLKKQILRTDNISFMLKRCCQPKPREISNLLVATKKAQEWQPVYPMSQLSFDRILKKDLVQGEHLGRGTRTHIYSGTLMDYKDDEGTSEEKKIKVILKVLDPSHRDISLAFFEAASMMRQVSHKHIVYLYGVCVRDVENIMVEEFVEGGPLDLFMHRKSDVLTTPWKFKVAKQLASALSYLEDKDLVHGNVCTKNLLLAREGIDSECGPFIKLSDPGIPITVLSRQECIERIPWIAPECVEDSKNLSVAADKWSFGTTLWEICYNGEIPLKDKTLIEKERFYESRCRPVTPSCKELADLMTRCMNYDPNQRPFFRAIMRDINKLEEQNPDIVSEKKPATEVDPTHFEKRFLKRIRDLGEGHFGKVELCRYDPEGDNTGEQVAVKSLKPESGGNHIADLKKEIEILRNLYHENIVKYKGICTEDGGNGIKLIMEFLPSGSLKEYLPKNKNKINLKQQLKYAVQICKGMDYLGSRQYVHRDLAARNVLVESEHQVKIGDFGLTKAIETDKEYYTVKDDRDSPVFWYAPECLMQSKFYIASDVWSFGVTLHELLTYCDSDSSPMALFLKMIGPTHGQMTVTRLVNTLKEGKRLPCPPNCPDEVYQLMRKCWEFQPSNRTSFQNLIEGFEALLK
Serine/threonine-protein kinase Chk2, sequence (O96017 whole entry): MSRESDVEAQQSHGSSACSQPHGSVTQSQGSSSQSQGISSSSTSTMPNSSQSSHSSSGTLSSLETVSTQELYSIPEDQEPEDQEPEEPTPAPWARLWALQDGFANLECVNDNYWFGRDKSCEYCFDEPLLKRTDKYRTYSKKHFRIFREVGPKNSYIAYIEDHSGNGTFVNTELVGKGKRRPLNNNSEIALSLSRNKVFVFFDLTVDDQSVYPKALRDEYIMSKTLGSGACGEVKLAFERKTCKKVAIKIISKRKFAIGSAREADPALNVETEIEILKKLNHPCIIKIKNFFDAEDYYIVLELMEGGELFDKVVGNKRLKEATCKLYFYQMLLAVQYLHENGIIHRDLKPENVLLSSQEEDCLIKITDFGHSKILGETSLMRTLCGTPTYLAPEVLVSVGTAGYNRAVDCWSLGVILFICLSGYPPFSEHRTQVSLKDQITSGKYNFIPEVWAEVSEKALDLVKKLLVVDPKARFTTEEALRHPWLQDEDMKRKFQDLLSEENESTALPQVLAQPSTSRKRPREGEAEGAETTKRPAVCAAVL

Consider `CN(c1ccnc(CNc2nc(Nc3ccc4c(c3)CC(=O)N4)ncc2C(F)(F)F)n1)S(C)(=O)=O` [PF-00911705], for which the % of control in assay [1] was 0%; in [2] it was 6.7%; in [3], 3.7%; in assay [4] it was 4.8%; in [5], 3.6%.

One may read the IC50 as the midpoint of a concentration-inhibition curve. Molecule `CN1C(=O)c2sccc2N(C)c2nc(Nc3ccc(S(N)(=O)=O)cc3)ncc21` registered an IC50 in [6] of 0.0348 µM. The % of control was 2% in assay [7], 2.6% in assay [8], 4.3% in assay [9] and 9.5% in [10].

The molecule `CNC(=O)c1ccc(Nc2ncc(C(F)(F)F)c(NCc3nccnc3N(C)S(C)(=O)=O)n2)cc1` [DEFACTINIB] came in with a % of control in assay [11] of 0%.

Consider `CCOc1cn(-c2ccc(F)cc2C)nc1C(=O)Nc1ccc(Oc2ccnc3cc(OC)c(OC)cc23)c(F)c1`, for which the % of control in [12] was < 10%.

`C[C@H](c1ccnc(Nc2nc3ccc(-c4cc(N(C)C)ncn4)cc3[nH]2)c1)N1CCN(C(=O)CC(F)(F)F)CC1` [BAY-985]: in assay [13], the IC50 is > 20 µM.

For the molecule `COc1cc2ncn(-c3cc(OCc4ccccc4C(F)(F)F)c(C(N)=O)s3)c2cc1OC` [GW843682X], the % of control in assay [14] was 8.6%; in [16], 0.2%. This molecule also displayed an IC50 in assay [15] of 7.6 µM.

As for `CC[C@@H]1C(=O)N(C)c2cnc(Nc3ccc(C(=O)NC4CCN(C)CC4)cc3OC)nc2N1C1CCCC1`, the % of control in assay [17] was 72%; in [18], 99%; in assay [19], 4.2%.
